Values after ≈ are worked out from the molar mass of the structure shown. Like-named read-outs stand apart in the source and are kept apart here.
What was measured:
[1] = tested on: histone deacetylase in nuclear extracts from H446 cells (pooled HDACs); assay: Inhibition of histone deacetylase in H446 nuclear extracts ([3H]-acetylated histone substrate); type: biochemical, human; details: H446 nuclear extract
[2] = tested on: acetylated histone H-4 in T24 human bladder cancer cells; assay: Histone H4 acetylation in whole cells by immunoblots; type: cell-based; details: T-24, read-out: EC50, concentration effective for increasing the acetylated H-4 signal by 50%, 16 hours incubation, immunoblot densitometry
Procedure: T24 human bladder cancer cells growing in culture are incubated with HDAC inhibitors for 16 hours. […] of total histone protein are loaded onto SDS/PAGE and transferred to nitrocellulose membranes. Membranes are probed with polyclonal antibodies specific for acetylated histone H-4 (Upstate Biotech Inc.), followed by horse radish peroxidase conjugated secondary antibodies (Sigma). Enhanced Chemiluminescence (ECL) (Amersham) detection is performed using Kodak films (Eastman Kodak). Acetylated H-4 signal is quantified by densitometry.

[3] = target: recombinant human HDAC-1 enzyme (rHDAC-1) (Homo sapiens (Human), UniProt Q13547); assay: Inhibition of recombinant human HDAC-1 ([3H]-acetylated histone substrate); type: biochemical; details: Table 4, recombinant human HDAC-1
Solubility = type: physicochemical
rHDAC-1 = rHDAC-1 (Homo sapiens (Human), UniProt Q13547); assay: Fluorogenic Boc-Lys(Ac)-AMC deacetylase assay (Table 4a), rHDAC-1; type: biochemical; details: for IC50: Boc-Lys(Ac)-AMC substrate, PI values = IC50 at maximum % inhibition reached; for rHDAC-1 partial inhibition (maximum % inhibition reached): PI = 100% inhibition not reached
Procedure: (§1) Alternatively (Table 4a), the following protocol is used to assay the compounds of the invention. In the assay, the buffer used is 25 mM HEPES, pH 8.0, 137 mM NaCl, 2.7 mM KCl, 1 mM MgCl2 and the substrate is Boc-Lys(Ac)-AMC in a 50 mM stock solution in DMSO. The enzyme stock solution is 4.08 μg/mL in buffer. The compounds are pre-incubated (2 μl in DMSO diluted to 13 μl in buffer for transfer to assay plate) with enzyme (20 μl of 4.08 μg/ml) for 10 minutes at room temperature (35 μl pre-incubation volume). The mixture is pre-incubated for 5 minutes at room temperature. The reaction is started by bringing the temperature to 37° C. and adding […] substrate. Total reaction volume is 50 μl. […] A plate is incubated in the dark for 10 minutes at room temperature before reading (λEx=360 nm, λEm=470 nm, Cutoff filter at 435 nm).

rHDAC-8 = rHDAC-8 (Homo sapiens (Human), UniProt Q9BY41); assay: Fluorogenic Boc-Lys(Ac)-AMC deacetylase assay (Table 4a), rHDAC-8; type: biochemical; details: for IC50: Boc-Lys(Ac)-AMC substrate, PI values = IC50 at maximum % inhibition reached; for rHDAC-8 partial inhibition (maximum % inhibition reached): PI = 100% inhibition not reached
Procedure: as §1

[4] = Milli-Q purified water, read-out: Solubility Water
[5] = pH 2, simulated gastric fluid, read-out: Solubility pH 2

Chain of rHDAC-1 (Q13547 whole entry): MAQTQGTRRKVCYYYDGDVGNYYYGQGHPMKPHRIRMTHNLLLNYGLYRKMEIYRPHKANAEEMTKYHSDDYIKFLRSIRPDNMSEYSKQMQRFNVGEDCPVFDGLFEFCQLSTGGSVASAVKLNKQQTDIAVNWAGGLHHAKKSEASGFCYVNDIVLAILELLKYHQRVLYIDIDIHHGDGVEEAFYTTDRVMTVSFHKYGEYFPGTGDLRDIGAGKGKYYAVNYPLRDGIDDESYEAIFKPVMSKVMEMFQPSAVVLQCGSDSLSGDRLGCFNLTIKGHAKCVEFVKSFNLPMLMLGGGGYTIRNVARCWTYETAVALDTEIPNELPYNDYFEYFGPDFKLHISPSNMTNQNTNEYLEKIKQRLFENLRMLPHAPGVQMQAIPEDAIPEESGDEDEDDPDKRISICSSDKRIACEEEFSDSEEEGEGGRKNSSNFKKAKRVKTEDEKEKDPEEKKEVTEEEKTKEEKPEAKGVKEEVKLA
Chain of recombinant human HDAC-1 enzyme (rHDAC-1) (Q13547 whole entry): as above
Chain of rHDAC-8 (Q9BY41 whole entry): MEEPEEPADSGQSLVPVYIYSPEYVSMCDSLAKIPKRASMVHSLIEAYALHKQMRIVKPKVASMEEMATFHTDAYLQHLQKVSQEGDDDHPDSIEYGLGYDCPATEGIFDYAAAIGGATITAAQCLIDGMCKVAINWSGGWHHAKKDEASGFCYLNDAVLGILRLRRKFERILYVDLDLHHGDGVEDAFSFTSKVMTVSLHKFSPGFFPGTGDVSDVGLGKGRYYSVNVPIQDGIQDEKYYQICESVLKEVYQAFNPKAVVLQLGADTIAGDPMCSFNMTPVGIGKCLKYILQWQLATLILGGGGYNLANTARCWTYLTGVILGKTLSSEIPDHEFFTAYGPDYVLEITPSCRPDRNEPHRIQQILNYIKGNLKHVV

With `O=C(/C=C/c1ccc(NS(=O)(=O)c2ccccc2)cc1)NO` [Compound 36, N-Hydroxy-3-[4-(benzenesulfonylamino)-phenyl]-2-propenamide] the IC50 [1] was 500 nM and the EC50 [2] was 5000 nM.
`COc1ccc(S(=O)(=O)Nc2ccc(/C=C/C(=O)NO)cc2)cc1OC` [Compound 90] showed an IC50 [1] of 400 nM and an EC50 [2] of 1000 nM.
With `Nc1ccccc1NC(=O)/C=C/c1ccc(NS(=O)(=O)c2cccc3ccccc23)cc1` [Compound 107] the “pooled HDACs percent inhibition” value ([1]; @ 1 μM) was 0% @ 1 μM, the IC50 [3] was 5000 nM and the EC50 [2] was 5000 nM.
With `O=C(/C=C/c1ccc(NS(=O)(=O)c2ccc(Cl)c(Cl)c2)cc1)NO` [Compound 109] the “pooled HDACs percent inhibition” value ([1]; @ 1 μM) was 32% @ 1 μM and the IC50 [3] was 120 nM.
In the case of `CC(C)c1cc(C(C)C)c(S(=O)(=O)Nc2ccc(/C=C/C(=O)NO)cc2)c(C(C)C)c1` [Compound 110], the IC50 [1] is reported as 700 nM and the IC50 [3] is reported as 550 nM.
Work on `O=C(/C=C/c1ccc(NS(=O)(=O)c2cc(Cl)cc(Cl)c2O)cc1)NO` [Compound 111] yielded an IC50 [1] of 400 nM and an IC50 [3] of 95 nM.
With `COc1ccc(S(=O)(=O)Nc2ccc(/C=C/C(=O)NO)cc2)cc1` [Compound 113] the “pooled HDACs percent inhibition” value ([1]; @ 1 μM) was 46% @ 1 μM and the IC50 [3] was 200 nM.
`O=C(/C=C/c1ccc(NS(=O)(=O)c2ccc(-c3ccccc3)cc2)cc1)NO` [Compound 120] gave an IC50 [1] of 120 nM, an IC50 [3] of 10 nM and an EC50 [2] of 1000 nM.
Molecule `COc1ccc(S(=O)(=O)Nc2ccc(/C=C/C(=O)Nc3ccccc3N)cc2)cc1` [Compound 122] has an EC50 [2] of 2000 nM.
Work on `CC(C)(N)C(=O)ONC(=O)Cc1ccc(CCCCc2ccccc2)cc1.Cl` [Compound 174f, N-(2-amino-2-methylpropanoyloxy)-2-(4-(4-phenylbutyl)phenyl)acetamide hydrochloride] yielded a solubility (Solubility; [4]) of 5 µM and a solubility (Solubility; [5]) of 4 µM.
In the case of `Cl.NCC1(C(=O)ONC(=O)Cc2ccc(CCCCc3ccccc3)cc2)CC1` [Compound 174g, N-(1-(aminomethyl)cyclopropanecarbonyloxy)-2-(4-(4-phenylbutyl)phenyl)acetamide hydrochloride], the solubility (Solubility; [4]) is reported as 195 µM and the solubility (Solubility; [5]) is reported as 132 µM.
In the case of `Nc1ccccc1NC(=O)c1ccc(CC(=O)c2ccccc2)o1` [Compound 178], the “pooled HDACs percent inhibition” value ([1]; @ 20 μM) is reported as 2% @ 20 μM and the IC50 [3] is reported as greater than 20000 nM.
With `O=C(Cc1ccc(CCCCc2cc(F)c(F)cc2F)cc1)NO` [Compound 179, N-hydroxy-2-(4-(4-(2,4,5-trifluorophenyl)butyl)phenyl)acetamide] the IC50 (rHDAC-1) was 500 nM and the IC50 (rHDAC-8) was 530 nM.
For `O=C(Cc1ccc(CCCCc2ccc(C(F)(F)F)cc2)cc1)NO` [Compound 182, N-hydroxy-2-(4-(4-(4-(trifluoromethyl)phenyl)butyl)phenyl)acetamide], the IC50 (rHDAC-1) was 700 nM, the “rHDAC-1 partial inhibition (maximum % inhibition reached)” value (rHDAC-1) was 64% and the IC50 (rHDAC-8) was 1300 nM. The “rHDAC-8 partial inhibition (maximum % inhibition reached)” value (rHDAC-8) was 74%.
In the case of `O=C(Cc1ccc(CCCCc2ccc3[nH]ccc3c2)cc1)NO` [Compound 183, 2-(4-(4-(1H-indol-5-yl)butyl)phenyl)-N-hydroxyacetamide], the IC50 (rHDAC-1) is reported as 380 nM and the IC50 (rHDAC-8) is reported as 410 nM.
In the case of `O=C(Cc1ccc(CCCCc2cccc(C(F)(F)F)c2)cc1)NO` [Compound 184, N-hydroxy-2-(4-(4-(3-(trifluoromethyl)phenyl)butyl)phenyl)acetamide], the IC50 (rHDAC-1) is reported as 930 nM, the IC50 (rHDAC-8) is reported as 400 nM and the “rHDAC-8 partial inhibition (maximum % inhibition reached)” value (rHDAC-8) is reported as 79%.
Molecule `O=C(Cc1ccc(CCCCc2ccccc2C(F)(F)F)cc1)NO` [Compound 185, N-hydroxy-2-(4-(4-(2-(trifluoromethyl)phenyl)butyl)phenyl)acetamide] has an IC50 (rHDAC-1) of 840 nM and an IC50 (rHDAC-8) of 610 nM.
With `O=C(Cc1ccc(CCCCc2ccc3c(c2)OCO3)cc1)NO` [Compound 187, 2-(4-(4-(benzo[d][1,3]dioxol-5-yl)butyl)phenyl)-N-hydroxyacetamide] the IC50 (rHDAC-1) was 200 nM, the “rHDAC-1 partial inhibition (maximum % inhibition reached)” value (rHDAC-1) was 62% and the IC50 (rHDAC-8) was 210 nM.
Work on `O=C(Cc1ccc(CCCCc2ccccc2)cc1)NO` [H] yielded a solubility (Solubility; [4]) of 3 µM (≈ 0.85 µg/mL) and a solubility (Solubility; [5]) of 3 µM (≈ 0.85 µg/mL).

Reference: patent US8796330B2, “Inhibitors of histone deacetylase and prodrugs thereof” (Methylgene Inc., priority 2006, dated 2014)
